{"source": "paper PMC6338780", "about": "“Structural elements of a pH-sensitive inhibitor binding site in NMDA receptors” (Nature Communications, 2019)", "key": {"[1]": {"molecular_target": "T1, GluN1-4a(H134A)/GluN2B NMDA receptor (Rattus norvegicus, UniProt P35439+Q00960, H134A)", "T1 construct": "compared to that observed for full-length receptors in TEVC recordings; expressed in transfected cells; host or cells: Xenopus laevis oocytes, cRNA injection", "T1 sequence (Q00960 27-1482, other chains not shown)": "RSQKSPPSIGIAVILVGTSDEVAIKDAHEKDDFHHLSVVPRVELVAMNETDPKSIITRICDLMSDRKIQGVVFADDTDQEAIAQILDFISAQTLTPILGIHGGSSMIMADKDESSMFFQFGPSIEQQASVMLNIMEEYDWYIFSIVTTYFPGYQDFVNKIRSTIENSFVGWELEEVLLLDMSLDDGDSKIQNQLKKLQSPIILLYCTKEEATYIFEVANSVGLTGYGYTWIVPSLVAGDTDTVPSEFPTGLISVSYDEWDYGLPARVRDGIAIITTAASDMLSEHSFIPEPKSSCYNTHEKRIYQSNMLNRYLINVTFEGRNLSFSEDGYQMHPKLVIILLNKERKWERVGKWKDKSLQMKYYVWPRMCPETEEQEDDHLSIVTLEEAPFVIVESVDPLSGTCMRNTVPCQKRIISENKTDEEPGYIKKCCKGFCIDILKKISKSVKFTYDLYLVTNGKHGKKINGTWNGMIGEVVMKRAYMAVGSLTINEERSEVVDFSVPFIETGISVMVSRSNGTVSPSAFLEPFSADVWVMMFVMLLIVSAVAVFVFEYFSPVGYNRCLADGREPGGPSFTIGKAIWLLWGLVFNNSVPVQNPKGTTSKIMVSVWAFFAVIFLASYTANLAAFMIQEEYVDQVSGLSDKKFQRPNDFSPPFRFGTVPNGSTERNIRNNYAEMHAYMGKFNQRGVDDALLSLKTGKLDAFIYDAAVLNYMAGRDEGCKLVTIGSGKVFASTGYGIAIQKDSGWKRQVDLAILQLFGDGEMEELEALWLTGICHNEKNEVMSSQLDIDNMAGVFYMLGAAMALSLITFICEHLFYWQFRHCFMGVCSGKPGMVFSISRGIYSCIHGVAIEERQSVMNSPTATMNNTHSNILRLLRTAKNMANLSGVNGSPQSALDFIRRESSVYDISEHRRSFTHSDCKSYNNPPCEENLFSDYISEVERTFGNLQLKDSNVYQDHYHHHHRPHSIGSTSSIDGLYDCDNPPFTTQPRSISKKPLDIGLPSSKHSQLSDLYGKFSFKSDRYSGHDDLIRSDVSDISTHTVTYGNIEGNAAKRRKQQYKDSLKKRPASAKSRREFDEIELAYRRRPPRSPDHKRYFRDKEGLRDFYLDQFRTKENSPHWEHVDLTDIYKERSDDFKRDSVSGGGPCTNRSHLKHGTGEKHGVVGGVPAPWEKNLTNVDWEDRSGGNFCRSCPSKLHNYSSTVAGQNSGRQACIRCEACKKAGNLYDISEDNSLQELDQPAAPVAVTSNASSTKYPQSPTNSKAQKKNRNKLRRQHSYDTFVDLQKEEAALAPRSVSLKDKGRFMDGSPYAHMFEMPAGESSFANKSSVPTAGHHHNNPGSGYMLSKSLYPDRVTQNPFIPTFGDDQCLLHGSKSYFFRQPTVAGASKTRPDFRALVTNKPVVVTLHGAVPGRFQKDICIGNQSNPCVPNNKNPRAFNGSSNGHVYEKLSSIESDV", "test": "TEVC concentration–response, GluN1-4a(H134A) mutant", "format": "cell-based", "conditions": "pH 7.6; BAPTA (Table 3)", "protocol": "Missense mutations were introduced into rat cDNAs encoding GluN1-4a and GluN2B in the pGEM-HE vector using the QuikChange protocol (Stratagene) using the primers listed in Supplementary Table 2. These plasmids were then linearized with NotI and used as templates for cRNA synthesis (Ambion). A total mass of 5–10 ng cRNA at a 1:2 weight ratio of GluN1-4a and GluN2B transcripts was co-injected into defolliculated Xenopus laevis oocytes (EcoCyte Bioscience). […] Voltage clamp was achieved and current responses were recorded at a holding potential of –40 mV with a two-electrode voltage clamp amplifier (Warner) at room temperature (~23 °C). Currents were low-pass filtered at 10 Hz and digitized at 20 Hz by LabWindows/CVI (National Instruments). Maximal effective concentrations of glutamate and glycine (100 and 30 μM, respectively) were used in all recordings."}, "[2]": {"molecular_target": "GluN1b–GluN2B ATD heterodimer (Xenopus laevis; Rattus norvegicus, UniProt A0A1L8F5J9+Q00960, E186G/INS190[…]/N348D/N350Q/N61Q)", "sequence (Q00960 32-394 N348D, other chains not shown)": "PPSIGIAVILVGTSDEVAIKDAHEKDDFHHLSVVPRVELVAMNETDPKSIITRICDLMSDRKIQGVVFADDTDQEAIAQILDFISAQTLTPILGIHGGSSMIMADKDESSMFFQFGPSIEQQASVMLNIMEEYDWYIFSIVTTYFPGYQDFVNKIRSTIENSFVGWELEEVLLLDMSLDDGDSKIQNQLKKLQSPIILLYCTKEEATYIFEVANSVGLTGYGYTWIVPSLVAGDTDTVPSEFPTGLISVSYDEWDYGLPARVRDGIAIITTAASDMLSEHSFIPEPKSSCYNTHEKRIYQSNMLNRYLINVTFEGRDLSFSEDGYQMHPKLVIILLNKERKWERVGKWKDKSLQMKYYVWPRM", "test": "ITC, ifenprodil titrated into isolated GluN1b–GluN2B ATD used for crystallization", "format": "binding", "conditions": "pH 7.6"}, "[3]": {"molecular_target": "GluN1b–GluN2B ATD heterodimer (Xenopus laevis; Rattus norvegicus, UniProt A0A1L8F5J9+Q00960, E186G/INS190SKKRNYENLDQLSYDNKRGPK/N348D/N350Q/N61Q)", "sequence (Q00960 32-394 N348D, other chains not shown)": "as the sequence (Q00960 32-394 N348D, other chains not shown) above", "test": "ITC, ifenprodil titrated into isolated GluN1b–GluN2B ATD used for crystallization", "format": "binding", "conditions": "pH 7.6"}, "[4]": {"molecular_target": "T2, GluN1-4a(Y109W)/GluN2B NMDA receptor (Rattus norvegicus, UniProt P35439+Q00960, Y109W)", "T2 construct": "compared to that observed for full-length receptors in TEVC recordings; expressed in transfected cells; host or cells: Xenopus laevis oocytes, cRNA injection", "test": "TEVC concentration–response, GluN1-4a(Y109W) mutant", "format": "cell-based", "conditions": "pH 7.6; BAPTA (Table 3)", "protocol": "(§1) Missense mutations were introduced into rat cDNAs encoding GluN1-4a and GluN2B in the pGEM-HE vector using the QuikChange protocol (Stratagene) using the primers listed in Supplementary Table 2. These plasmids were then linearized with NotI and used as templates for cRNA synthesis (Ambion). A total mass of 5–10 ng cRNA at a 1:2 weight ratio of GluN1-4a and GluN2B transcripts was co-injected into defolliculated Xenopus laevis oocytes (EcoCyte Bioscience). The oocytes were incubated in Barth’s solution containing 88 mM NaCl, 2.4 mM NaHCO3, 1 mM KCl, 0.33 mM Ca(NO3)2, 0.41 mM CaCl2, 0.82 mM MgSO4, and 5 mM HEPES, at a final pH of 7.4, supplemented with 0.1 mg mL^−1 gentamicin sulfate, 1 μg mL^−1 streptomycin, and 1 U mL^−1 penicillin at 15–19 °C. TEVC current recordings were performed 2–4 days after injection using an extracellular recording solution containing 90 mM NaCl, 10 mM HEPES, 1 mM KCl, 0.5 mM BaCl2, and 0.01 mM EDTA at either pH 6.9 or pH 7.6[39]. Voltage clamp was achieved and current responses were recorded at a holding potential of –40 mV with a two-electrode voltage clamp amplifier (Warner) at room temperature (~23 °C). Currents were low-pass filtered at 10 Hz and digitized at 20 Hz by LabWindows/CVI (National Instruments). Maximal effective concentrations of glutamate and glycine (100 and 30 μM, respectively) were used in all recordings."}, "[5]": {"molecular_target": "T3, GluN1a–GluN2B ATD heterodimer (UniProt A0A1L8F5J9+Q00960, N348D/N350Q/N61Q)", "T3 construct": "the ATD domains of Xenopus GluN1a and rat GluN2B; alkaline phosphatase secretion signal (N); 57 residue linker to the other ATD, with TEV protease sites (cleaved yes); made in house", "T3 sequence (Q00960 31-394 N348D limits assumed, other chains not shown)": "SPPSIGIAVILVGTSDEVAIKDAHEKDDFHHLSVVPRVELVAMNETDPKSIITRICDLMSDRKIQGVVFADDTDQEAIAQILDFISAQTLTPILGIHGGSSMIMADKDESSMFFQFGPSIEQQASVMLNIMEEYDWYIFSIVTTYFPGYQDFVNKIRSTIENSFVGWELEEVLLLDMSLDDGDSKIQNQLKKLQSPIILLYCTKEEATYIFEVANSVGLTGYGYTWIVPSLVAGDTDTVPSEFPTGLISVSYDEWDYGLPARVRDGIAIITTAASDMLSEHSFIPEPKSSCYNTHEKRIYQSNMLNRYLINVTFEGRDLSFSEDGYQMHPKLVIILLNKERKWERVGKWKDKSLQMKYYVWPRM", "test": "ITC, ligands titrated into isolated GluN1a–GluN2B ATD heterodimer", "format": "binding, Xenopus GluN1a, rat GluN2B", "excerpt": "In order to directly estimate binding affinities of these inhibitors for their binding site in the GluN1–GluN2B NMDA receptors, we performed ITC using the purified GluN1a–GluN2B ATD proteins titrated with ligands of various N-substituent lengths at pH 7.6 and pH 6.5 to mimic the extreme drop in pH that can occur at the ischemic core[1]–[4] (Fig. 2a, b; Supplementary Figures 2 and 3). Toward this end, we expressed the isolated […] GluN1a–GluN2B ATD heterodimer proteins in GnTI^− HEK293S cells. Here, for clarity we will call the GluN1 ATD with and without exon 5 GluN1b ATD and GluN1a ATD, respectively.\nTo efficiently express the ATD domains of Xenopus GluN1a and rat GluN2B, we used the alkaline phosphatase secretion signal and fused the two domains with a 57 residue linker as described elsewhere, with the following modifications: due to an intrinsic thrombin site in the GluN2B ATD, we engineering Tobacco Etch Virus (TEV) protease sites into this construct to remove the linker. In addition, three glycosylation sites were removed by mutating GluN1a Asn61 and Asn371 to Gln, and GluN2B Asn348 was mutated to Asp.\nCell cultures were maintained at 37 °C with 5% CO2 and grown to a density of 2.0–2.5 × 10^6 cells mL^−1, then infected with baculovirus. Sodium butyrate was added to the infected cells to a final concentration of 5 mM and culture medium containing secreted GluN1a–GluN2B ATD fusion protein was harvested 96 h after infection.\nCells were removed from the medium by centrifugation and the clarified medium was concentrated and exchanged three times to cold TBS (200 mM NaCl, 20 mM Tris, pH 8.0) using tangential flow filtration with a molecular weight cutoff of 30 kDa (Pall Corporation). […] The following day, glutathione in a 10:1 ratio, reduced:oxidized, was added to the dialyzed protein to a final concentration of 3 mM, along with EDTA, pH 8.0, to a final concentration of 1 mM. Based on the protein yield, a 1:100 ratio of TEV protease (mass:mass, TEV:ATD) was added to the ATD solution and the reaction was incubated for 4 h at 18 °C. Next, EndoF1 endoglycosidase at a 1:5 ratio (mass:mass, EndoF1:ATD) was added to the ATD/TEV mixture and dialyzed overnight at room temperature to 2 L TBS with 10% glycerol and 20 mM imidazole.\nThis sample was then dialyzed overnight at 4 °C to 2 L TBS with 20% glycerol. […]\nAfter dialysis, the protein sample was diluted to 10–15 μM and dimethyl sulfoxide (DMSO) was added to a final concentration of 1.5% (v/v), in order to match that of the ligand solution. […] Dilution enthalpy was calculated from post-saturation injections and subtracted from total heats, and the data were fit using a single-site model with the program OriginLab 7.5."}, "[6]": {"molecular_target": "T4, GluN1-4a/GluN2B (WT) NMDA receptor (Rattus norvegicus, UniProt P35439+Q00960)", "T4 construct": "compared to that observed for full-length receptors in TEVC recordings; expressed in transfected cells; host or cells: Xenopus laevis oocytes, cRNA injection", "T4 sequence (Q00960 27-1482, other chains not shown)": "as the sequence (Q00960 27-1482, other chains not shown) above", "test": "TEVC concentration–response in Xenopus oocytes, wild type GluN1-4a/GluN2B", "format": "cell-based", "conditions": "for Ifenprodil DR, response at 0.01: ifenprodil at 0.01; for Ifenprodil DR, response at 0.01 / Ifenprodil DR, response at 0.03 / Ifenprodil DR, response at 0.1: relative to 100/100 G/G; for Ifenprodil DR, response at 0.03: ifenprodil at 0.03; for Ifenprodil DR, response at 0.1: ifenprodil at 0.1", "protocol": "as §1, with “Maximal effective concentrations of glutamate and glycine (100 and 30 μM, respectively) were used in all recordings.” left out"}}, "note": "Values joined by “and” are separate entries in the source; they are usually repeats but may differ in a detail not shown here. Identical values can stand only once. Marks after values point to notes of the source that are not given here."}
{"smiles": "CC(C(O)c1ccc(O)cc1)N1CCC(Cc2ccccc2)CC1", "note": "(centres unmarked) [Ifenprodil, Ifenprodil hemitartrate]", "values": [{"measurement": "% response, current at maximal ifenprodil potentiation", "setting": "[1]", "result": "ND, 105%^f nH ND (9)"}, {"measurement": "n (ITC stoichiometry)", "setting": "[2]", "result": "0.98 ± 0.01"}, {"measurement": "Kd", "setting": "[3]", "result": "255 ± 11", "unit": "nM"}, {"measurement": "% response, current at maximal ifenprodil potentiation", "setting": "[4]", "result": "ND, 115%^f nH ND (9)"}, {"measurement": "Kd", "setting": "[5]; pH 6.5", "result": "249 ± 16", "unit": "nM"}, {"measurement": "Kd", "setting": "[5]; pH 7.6", "result": "226 ± 15", "unit": "nM"}, {"measurement": "n (ITC stoichiometry)", "setting": "[5]; pH 6.5", "result": "0.97 ± 0.01"}, {"measurement": "n (ITC stoichiometry)", "setting": "[5]; pH 7.6", "result": "1.0 ± 0.01"}, {"measurement": "nH", "setting": "[6]; 1-4a/2B WT, pH7.6, BAPTA, ifenprodil", "result": "0.8364 and 0.9502 and 1.0632 and 0.8875 and 0.8992 and 1.197 and 1.038"}, {"measurement": "Ifenprodil DR, response at 0.01", "setting": "[6]; 1-4a/2B WT, pH7.6, BAPTA", "result": "89.9 and 98.2 and 90 and 89 and 92.8 and 95.6 and 95.4"}, {"measurement": "Ifenprodil DR, response at 0.01", "setting": "[6]; 1-4a/2B WT, pH7.6, BAPTA, mean", "result": 92.9857}, {"measurement": "Ifenprodil DR, response at 0.03", "setting": "[6]; 1-4a/2B WT, pH7.6, BAPTA", "result": "78.8 and 96.7 and 76.5 and 75.3 and 82 and 88.4 and 87"}, {"measurement": "Ifenprodil DR, response at 0.03", "setting": "[6]; 1-4a/2B WT, pH7.6, BAPTA, mean", "result": 83.5286}, {"measurement": "Ifenprodil DR, response at 0.1", "setting": "[6]; 1-4a/2B WT, pH7.6, BAPTA", "result": "64.2 and 90.5 and 49.1 and 54.7 and 63.1 and 64.1 and 66.9"}, {"measurement": "Ifenprodil DR, response at 0.1", "setting": "[6]; 1-4a/2B WT, pH7.6, BAPTA, mean", "result": 64.6571}, {"measurement": "nH", "setting": "[6]; 1-4a/2B WT, pH7.6, BAPTA, ifenprodil, mean", "result": 0.9818}, {"measurement": "nH", "setting": "[6]; Ifenprodil DR, 1-4a/2B WT, pH7.6, BAPTA, single oocyte recordings, row 'mean' = mean", "result": "0.8875 and 0.8992 and 1.197 and 1.038 and 0.8364 and 0.9502 and 1.0632"}, {"measurement": "nH", "setting": "[6]; Ifenprodil DR, 1-4a/2B WT, pH7.6, BAPTA, single oocyte recordings, row 'mean' = mean, mean", "result": 0.9818}, {"measurement": "% response", "setting": "[6]; current at 1 μM ifenprodil, pH 7.6, BAPTA", "result": 35, "unit": "%"}, {"measurement": "nH", "setting": "[6]; pH 7.6, BAPTA (Table 3)", "result": 1.0}]}
